# Laboratory results reported in article PMC10980815, “Cell surface patching via CXCR4-targeted nanothreads for cancer metastasis inhibition” (Nature Communications, 2024).
# Ends that are not written are not given here.
# Experiments:
# [1] = tested on: orthotopic 4T1 breast tumors; assay: Spontaneous lung metastasis model: tumor volume and pulmonary metastatic nodules; format: in vivo, female BALB/c mice; details: for Number of metastatic nodules: Fig. 5e, pulmonary
# Description: For the in vivo investigation of pulmonary metastasis, 4T1 cells (1 × 10^6 cells) were injected into the third mammary fat pad of female BALB/c mice (6–8 weeks). […] Tumor volumes were recorded every other day. On day 28, lungs were harvested and fixed with Bouin’s solutions. The pulmonary metastatic nodules were counted and analyzed by hematoxylin-eosin staining.
# [2] = tested on: HIF-1α in orthotopic 4T1 tumors; assay: Intratumoral HIF-1α expression by flow cytometry; format: in vivo, female BALB/c mice
# Description: 4T1 cells (1 × 10^6 cells) were injected into the third mammary fat pad of female BALB/c mice (6–8-week). […] On day 28, blood samples, lungs and tumors were harvested.
# For evaluating the hypoxic conditions in tumor tissues, immunofluorescent staining and flow cytometry analysis of HIF-1α were conducted. For immunofluorescent staining of HIF-1α, tumor slices were sequentially stained with anti-HIF-1 alpha recombinant rabbit monoclonal antibody (1:500 dilution) and goat anti-rabbit IgG H&L Alexa Fluor® 647 (1:1000 dilution). For flow cytometry analysis of HIF-1α, single-cell suspensions of tumor tissues were sequentially stained with anti-HIF1 alpha rabbit polyclonal antibody (1:500 dilution) and goat anti-rabbit IgG H&L Alexa Fluor® 647 (1:1000 dilution) before analysis.
# [3] = i.v. days 7, 14, 21 (5 mg/kg BS equivalence; P-CM2 24 h later), analysis day 28, mouse 1 of 5
Substance,Number of metastatic nodules ([1]; mouse 1),Number of metastatic nodules ([1]; mouse 2),Number of metastatic nodules ([1]; mouse 3),Number of metastatic nodules ([1]; mouse 4),Number of metastatic nodules ([1]; mouse 5),"lung metastatic nodule burden at endpoint ([1]; three weekly i.v. cycles, day 28)","intratumoral HIF-1α expression, flow cytometry (Fig. 6c) [2, 3]","intratumoral HIF-1α expression, flow cytometry (Fig. 6c) ([2]; same, mouse 2 of 5)","intratumoral HIF-1α expression, flow cytometry (Fig. 6c) ([2]; same, mouse 3 of 5)","intratumoral HIF-1α expression, flow cytometry (Fig. 6c) ([2]; same, mouse 4 of 5)","intratumoral HIF-1α expression, flow cytometry (Fig. 6c) ([2]; same, mouse 5 of 5)"
LGASWHRPDKCCLGYQKRPLPA [Free BS],31,28,25,36,27,high metastatic nodule burdens,1107.6,915.453,924.512,898.316,847.852
"P-BS: HPMA copolymer-BS conjugate, ~6 BS grafts per polymer (LGASWHRPDKCCLGYQKRPLPA; not fully specified (residues 11, 12); also: about 6 peptides grafted on HPMA copolymer via cysteine-maleimide thioether links)",15,17,22,19,28,–,747.043,870.276,640.882,534.456,521.955
